The record followed here is US9029405B2, “5-(biphenyl-4-yl)-3-phenyl-1,2,4-oxadiazolyl derivatives as ligands on the sphingosine 1-phosphate(SIP)receptors” (Merck Serono S.A., priority 2010, dated 2015).

Structures can show the parent of a compound that is named as a salt. Where two headings read alike, the source gives them in different places.

Test [1] concerns the target T1, S1P1 (Homo sapiens, UniProt P21453). The experiment in a line: Receptor binding assay, [33P]sphingosine 1-phosphate competition, membranes of CHO cells expressing S1P1. How it is done: (§1) Membranes were prepared from CHO cells expressing S1P1 or S1P3 for use in ligand binding studies. Cells were suspended in 50 mM TRIS, pH 7.4, 2 mM EDTA, 250 mM Sucrose (buffer A) and 1× Complete protease inhibitor cocktail (Roche), and disrupted at 4° C. by N2 decompression using a cell disruption bomb (Parr Instrument). Following centrifugation at 1000 RPM for 10 min at 4° C., the supernatant was diluted (2×) in buffer A and centrifuged again at 19000 RPM for 75 min at 4° C. The pellet was then suspended in 10 mM HEPES, pH 7.4, 1 mM EDTA, 250 mM Sucrose (Buffer B), and 1× Complete EDTA-free protease inhibitor cocktail and homogenized using a potter. Membranes were flash frozen in liquid N2 and stored at −80° C.
(§2) [33P]sphingosine 1-phosphate (3000 Ci/mmol; American Radiolabeled Chemicals, Inc.) was added to test compounds in 20% DMSO by competition. Membranes and WGA SPA beads (GE Healthcare) were added to give a final volume of 100 μl in 96-well plates or 50 μl in 384-well plates with assay concentrations of 30 pM or 15 pM [33P]sphingosine 1-phosphate (respectively for S1P1 or S1P3), 50 mM HEPES, pH 7.5, 5 mM MgCl2, 100 mM NaCl, 0.4% fatty acid-free BSA, 1-5 μg/well of proteins in 96-well plates vs 0.6-1 μg/well of proteins in 384-well plates and 100 μg/well of WGA SPA beads in 96-well plates vs 75 μg/well of WGA SPA beads in 384-well plates. Binding was performed for 60 min at RT on a shaker and bound radioactivity was measured on a PerkinElmer 1450 MicroBeta counter. Triplicate samples were averaged and normalized as percentage of inhibition relative to total binding (only DMSO in well) and non specific binding (1000-fold excess of unlabeled S1P). Binding data were analyzed using the GraphPad Prism program or Genedata software.
(§3) The “potency” or the “activity” of the compounds is determined by the Ki values as evaluated in one of the above described binding assay, 96 or 384 well plates.
Target sequence in this assay (P21453 whole entry, species assumed): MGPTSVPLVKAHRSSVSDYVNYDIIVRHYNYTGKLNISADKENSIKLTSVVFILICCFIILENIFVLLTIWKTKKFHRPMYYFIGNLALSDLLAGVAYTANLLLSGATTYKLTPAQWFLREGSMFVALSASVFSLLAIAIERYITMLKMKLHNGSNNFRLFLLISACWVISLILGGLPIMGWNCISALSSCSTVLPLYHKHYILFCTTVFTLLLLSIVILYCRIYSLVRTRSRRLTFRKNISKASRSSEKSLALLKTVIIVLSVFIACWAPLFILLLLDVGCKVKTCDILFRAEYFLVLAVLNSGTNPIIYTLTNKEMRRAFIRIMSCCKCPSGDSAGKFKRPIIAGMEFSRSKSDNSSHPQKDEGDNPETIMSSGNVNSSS

The target in test [2] is S1P3 (Homo sapiens, UniProt Q99500). The experiment in a line: Receptor binding assay, [33P]sphingosine 1-phosphate competition, membranes of CHO cells expressing S1P3. How it is done:
as §1, §2, §3

For test [3], the target named is T1, S1P1. Description: S1P1 internalization assay in S1P1-U2OS cells (cell imaging). It counts as cell-based. Details: host or cells: U2OS (human bone osteosarcoma epithelial cells). The note with it: U2OS cells expressing S1P1-EGFP, 384-well format. As for the experimental part: Cellular Functional Assays: Internalization of Sphinqosine-1-phosphate Receptor 1 (S1P1) in a Human Cell Line (U2OS) in a 384-Well Format Using a Cell Imaging Analysis.
The S1P1 internalization assay was performed in 384 well plates (Corning 384 black with clear bottom 3712) using S1P1-U2OS cells from BioImage (C039A), a human epithelial cell line (Human Bone Osteosarcoma Epithelial Cells). These cells expressed the human S1P1 Receptor fused to the green fluorescent protein (EGFP). A standard CMV promoter (cytomegalovirus promoter) controls the expression of S1P1-EGFP and continuous expression was maintained by addition of geneticin to the culture medium.
S1P1 Receptor desensitization induced the internalization of the membrane-localized S1P-EGFP fusion protein to endosomes, which can be monitored by cell imaging analysis.
The cells are plated in low serum medium (Dulbecco's Modified Eagle Medium (DMEM) with Glutamax-1 and high glucose, 1% Penicillin/Streptomycin, 1% Fetal Calf Serum (FCS), 0.5 mg/ml Geneticin) overnight.
The next day, S1P1-U2OS cells are incubated in 20 μl serum free medium (DMEM with Glutamax-1 and high glucose, 0.1% of fatty-acid free Bovin Serum Albumin (BSA), 10 mM, N′-2-Hydroxyethylpiperazine-N′-2 ethanesulphonic acid (HEPES) 1M) for 2 hours at 37° C./5% CO2. The cells are then treated with 4 μl compounds/agonists (6×/3% DMSO) for a total volume of 24 μl, and plates are incubated for 1 hour at 37° C./5% CO2.
S1P1-U2OS cells are fixed with 25 μl Paraformaldehyde 8% and stained with Hoechst 33345 dye (1:1000) for 20 minutes.
They were then washed 3 times with Phosphate Buffered Saline (PBS) and plates are sealed. The internalization of the receptor S1P1-EGFP is measured on Cellomics by calculating the “spot count per object” (“object” corresponds to nuclear and “spot” corresponds to S1P1-EGFP receptor). Internalization data were observed thanks to vHCS View and analyzed using Genedata® software.
Target sequence in this assay (P21453 whole entry): as the sequence (P21453 whole entry, species assumed) above

Setting [4] is: 384 well plate, read-out: S1P1 Binding Ki [M] (384 well plate).
Where [5] appears, read: 384 well plate, read-out: S1P3 Binding Ki [M] (384 well plate).
Setting [6] is: 96 well plate, read-out: S1P1 Binding Ki [M] (96 well plate).

S1P3, sequence (Q99500 whole entry, species assumed): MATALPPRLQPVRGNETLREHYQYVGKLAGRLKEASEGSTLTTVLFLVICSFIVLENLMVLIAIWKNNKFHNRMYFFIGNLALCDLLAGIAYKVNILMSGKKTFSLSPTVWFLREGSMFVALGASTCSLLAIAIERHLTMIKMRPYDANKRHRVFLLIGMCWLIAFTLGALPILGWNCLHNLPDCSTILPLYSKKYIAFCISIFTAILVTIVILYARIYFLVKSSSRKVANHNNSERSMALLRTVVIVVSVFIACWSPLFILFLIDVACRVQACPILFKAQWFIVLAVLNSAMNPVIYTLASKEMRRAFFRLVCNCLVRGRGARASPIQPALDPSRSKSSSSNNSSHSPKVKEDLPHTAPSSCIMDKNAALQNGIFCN

As for `Cc1ccccc1-c1ccc(-c2nc(-c3ccc(CN[C@@H](C)C(=O)O)cc3)no2)cc1C(F)(F)F` [Example 67], the Ki – broadly, a dissociation constant, usually derived from enzyme kinetics or from competition with a known ligand – in test [1] (setting [4]) was 3.45e-09 M; in test [2] (setting [5]) it was 4.49e-06 M. The EC50 (usually the concentration giving half of the maximal effect) in test [3] stood at 28.5 nM.

Consider `CC[C@@H](C(=O)O)N(C)Cc1cccc(-c2noc(-c3ccc(-c4ccccc4C)c(C(F)(F)F)c3)n2)c1` [Example 86], for which the Ki in test [1] (setting [4]) turned out to be 5.88e-09 M; in test [2] (setting [5]) it was 5.55e-07 M. In test [3], this compound yielded a concentration giving a half-maximal response (EC50) of 39.7 nM.

For the compound `Cc1ccccc1-c1ccc(-c2nc(-c3ccc([C@@H](C)N(C)CC(=O)O)cc3)no2)cc1C(F)(F)F` [Example 36, N-methyl-N-[(1R)-1-(4-{5-[2′-methyl-2-(trifluoromethyl)biphenyl-4-yl]-1,2,4-oxadiazol-3-yl}phenyl)ethyl]glycine, hydrochloride salt], the Ki in test [1] (setting [4]) was 2.55e-09 M; in test [2] (setting [5]), 7.93e-07 M. Further, in test [3], a half-maximal response (EC50) required 33.6 nM.

As to `CCN(Cc1cccc(-c2noc(-c3ccc(-c4ccccc4C)c(C(F)(F)F)c3)n2)c1)[C@H](CO)C(=O)O` [Example 87, (R)-2-(Ethyl-{3-[5-(2′-methyl-2-trifluoromethyl-biphenyl-4-yl)-[1,2,4]oxadiazol-3-yl]-benzyl}-amino)-3-hydroxy-propionic acid], the Ki in test [1] (setting [4]) came out at 2.29e-09 M; in test [2] (setting [5]) it was 4.68e-07 M. In test [3], this compound returned a concentration giving a half-maximal response (EC50) of 24.9 nM.

As to `Cc1ccccc1-c1ccc(-c2nc(-c3cc(F)cc(CN[C@@H](CC(C)C)C(=O)O)c3)no2)cc1C(F)(F)F` [Example 12, N-(3-fluoro-5-{5-[2′-methyl-2-(trifluoromethyl)biphenyl-4-yl]-1,2,4-oxadiazol-3-yl}benzyl)leucine, hydrochloride salt], the inhibition constant Ki stood at 2.58e-09 M in test [1] (setting [4]) and 6.43e-07 M in test [2] (setting [5]). For the same compound, in test [3], the response was half-maximal at 28.9 nM (EC50).

In the case of `Cc1ccccc1-c1ccc(-c2nc(-c3cccc(CNC(C)(CO)C(=O)O)c3)no2)cc1C(F)(F)F` (centres unmarked) [Example 78], the Ki in test [1] (setting [4]) amounted to 2.16e-09 M; in test [2] (setting [5]), 2.78e-07 M. In test [3], this compound had an EC50 of 22.3 nM.

With `CCN(Cc1ccc(-c2noc(-c3ccc(-c4ccccc4C)c(C(F)(F)F)c3)n2)cc1)[C@@H](C)C(=O)O` [Example 89, (2S)-2-(ethyl(4-(5-(2′-methyl-2-(trifluoromethyl)biphenyl-4-yl)-1,2,4-oxadiazol-3-yl)benzyl)amino)propanoic acid], the Ki in test [1] (setting [4]) amounted to 2.56e-09 M; in test [2] (setting [5]), 2.03e-06 M. The same compound yielded a half-maximal effective concentration (EC50) in test [3] of 32.2 nM.

For `Cc1cc(-c2nc(-c3ccc([C@@H](C)NCC(=O)O)cc3)no2)ccc1-c1ccccc1C(F)(F)F` [Example 8, N-[(1R)-1-(4-{5-[2-methyl-2′-(trifluoromethyl)biphenyl-4-yl]-1,2,4-oxadiazol-3-yl}phenyl)ethyl]glycine, hydrochloride salt], the Ki was 9.13e-10 M in test [1] (setting [6]); 3.68e-09 M in test [1] (setting [4]); greater than 2e-05 M in test [2] (96 well plate, read-out: S1P3 Binding Ki [M] (96 well plate)); 6.38e-06 M in test [2] (setting [5]). Also, it took 26.9 nM to reach a half-maximal effect in test [3] (EC50).

For the compound `Cc1ccccc1-c1ccc(-c2nc(-c3cccc(CCN[C@H](C)C(=O)O)c3)no2)cc1C(F)(F)F` [Example 95], the Ki in test [1] (setting [6]) stood at 2.15e-10 M; in test [1] (setting [4]), 8.46e-10 M; in test [2] (setting [5]), 1.12e-07 M. The EC50 in test [3] was found to be 4.25 nM.

In the case of `Cc1ccccc1-c1ccc(-c2nc(-c3ccc(CNCC(C)C(=O)O)cc3)no2)cc1C(F)(F)F` (centres unmarked) [Example 63], the inhibitory constant (Ki) was found to be 1.15e-09 M in test [1] (setting [4]) and 2.02e-07 M in test [2] (setting [5]). The compound further had an EC50 in test [3] of 3.47 nM.

Take `CC[C@@H](C(=O)O)N(C)Cc1ccc(-c2noc(-c3ccc(-c4ccccc4C)c(C(F)(F)F)c3)n2)cc1` [Example 69, (2S)-2-(methyl(4-(5-(2′-methyl-2-(trifluoromethyl)biphenyl-4-yl)-1,2,4-oxadiazol-3-yl)benzyl)amino)butanoic acid]: the results for the inhibitory constant (Ki) in test [1] (setting [4]) and in test [2] (setting [5]) were 5.2e-09 M and 4.07e-06 M, respectively. Also, in test [3], the half-maximal effective concentration (EC50) stood at 49.1 nM.

For `COCc1cc(-c2nc(-c3ccc([C@H](C)N[C@H](C)C(=O)O)cc3)no2)ccc1-c1ccccc1C` [Example 3, N-[(1S)-1-(4-{5-[2-(methoxymethyl)-2′-methylbiphenyl-4-yl]-1,2,4-oxadiazol-3-yl}phenyl)ethyl]-D-alanine, hydrochloride salt], the results for the Ki in test [1] (setting [6]), in test [1] (setting [4]) and in test [2] (setting [5]) were 3.4e-10 M, 2e-09 M and 2.59e-06 M, respectively. The same compound displayed a 50% effective concentration (EC50) in test [3] of 8.19 nM.

Consider `Cc1cc(-c2nc(-c3ccc([C@H](C)N(C)CC(=O)O)cc3)no2)ccc1-c1ccccc1C(F)(F)F` [Example 33, N-methyl-N-[(1S)-1-(4-{5-[2-methyl-2′-(trifluoromethyl)biphenyl-4-yl]-1,2,4-oxadiazol-3-yl}phenyl)ethyl]glycine, hydrochloride salt], for which the Ki in test [1] (setting [4]) is 5.77e-09 M. Also, it took 91 nM to reach a half-maximal effect in test [3] (EC50).

On to `Cc1cc(-c2nc(-c3cccc(C(C)N(C)[C@@H](C)C(=O)O)c3)no2)ccc1-c1ccccc1C(F)(F)F` (some centres unmarked) [Example 28, N-methyl-N-[1-(3-{5-[2-methyl-2′-(trifluoromethyl)biphenyl-4-yl]-1,2,4-oxadiazol-3-yl}phenyl)ethyl]alanine, hydrochloride salt], for which the inhibition constant (Ki) in test [1] (setting [4]) turned out to be 1.38e-08 M. The compound further registered an EC50 in test [3] of 5170 nM.

As for `Cc1ccccc1-c1ccc(-c2nc(-c3cccc(CN(C)C(C)(C)C(=O)O)c3)no2)cc1C(F)(F)F` [Example 83, 2-Methyl-2-(methyl-{3-[5-(2′-methyl-2-trifluoromethyl-biphenyl-4-yl)-[1,2,4]oxadiazol-3-yl]-benzyl}-amino)-propionic acid], the Ki in test [1] (setting [4]) turned out to be 3.56e-09 M. In test [3], a half-maximal effect (EC50) was put at 75.5 nM.

Turning to `Cc1cc(-c2nc(-c3cccc(C(C)N(C)CC(=O)O)c3)no2)ccc1-c1ccccc1C(F)(F)F` (centres unmarked) [Example 30, N-methyl-N-[1-(3-{5-[2-methyl-2′-(trifluoromethyl)biphenyl-4-yl]-1,2,4-oxadiazol-3-yl}phenyl)ethyl]glycine, hydrochloride salt], the inhibition constant (Ki) in test [1] (setting [4]) worked out at 1.43e-08 M. This compound also showed an EC50 in test [3] of 410 nM.

With `Cc1ccccc1-c1ccc(-c2nc(-c3ccc(CN(C)C(C(=O)O)C(C)O)cc3)no2)cc1C(F)(F)F` (centres unmarked) [Example 74], the Ki in test [1] (setting [4]) was 8.53e-09 M. Besides, the EC50 in test [3] came to 106 nM.

Consider `Cc1ccccc1-c1ccc(-c2nc(-c3cccc(CNC(C(=O)O)C(C)O)c3)no2)cc1C(F)(F)F` (centres unmarked) [Example 77], for which the inhibition constant Ki in test [1] (setting [4]) is 5.47e-09 M. Also, in test [3], the EC50 is 39.9 nM.

As to `COCC(c1ccc(-c2noc(-c3ccc(-c4ccccc4C)c(C(F)(F)F)c3)n2)cc1)N(C)CC(=O)O` (centres unmarked) [Example 51, 2-((2-methoxy-1-(4-(5-(2′-methyl-2-(trifluoromethyl)biphenyl-4-yl)-1,2,4-oxadiazol-3-yl)phenyl)ethyl)(methyl)amino)acetic acid], in test [1] (setting [4]), the inhibition constant (Ki) was determined as 7.52e-09 M. The compound further displayed a 50% effective concentration (EC50) in test [3] of 29.8 nM.

For the compound `Cc1cc(-c2nc(-c3ccc([C@@H](C)N(C)CC(=O)O)cc3)no2)ccc1-c1ccccc1C(F)(F)F` [Example 35, N-methyl-N-[(1R)-1-(4-{5-[2-methyl-2′-(trifluoromethyl)biphenyl-4-yl]-1,2,4-oxadiazol-3-yl}phenyl)ethyl]glycine, hydrochloride salt], the Ki in test [1] (setting [4]) amounted to 6.14e-09 M. Further, in test [3], the EC50 was determined as 211 nM.
